Measured values: patent publication US20160207904A1, “CRYSTALLINE 2-HYDROXY-6-((2-(1-ISOPROPYL-1H-PYRAZOL-5-YL)PYRIDIN-3-YL)METHOXY)BENZALDEHYDE ANSOLVATE SALTS” (GLOBAL BLOOD THERAPEUTICS, INC., priority 2013, published 2016)

Key:
Assay type in all cases: physicochemical
[1] = Interconversion study (slurries of mixed forms in ethyl acetate or ethanol, XRPD); settings: ambient condition, hydrochloride
Procedure: (§1) In an interconversion study, a mixture of all identified crystal forms turned into Form I after slurry experiments in ethyl acetate or ethanol. […] The XRPD patterns and microscopy images of the three crystal forms are shown in FIG. 6 and FIG. 7, respectively.
Interconversion Study: Interconversion experiments were carried out by making slurries containing the same amount of different forms solids in ethyl acetate or ethanol. The slurries were kept stirring for days at ambient condition. The insoluble solids were recovered by filtration and examined using XRPD.
Interconversion experiments were performed with the various crystalline forms. Samples of equal amount of Form I mixed with Form II in solvents (ethyl acetate or ethanol) were slurried at ambient condition with covering. The remaining solids were collected by filtration and examined by XRPD. […] Some observed differences in the —OH stretch region at 3500 cm−1 in FTIR were most likely due to the preferred orientation which may be caused by particle size and morphology difference.

[2] = Dynamic vapor sorption (DVS); settings: at 80% RH, 25.0±1.0° C.
Procedure: Dynamic Vapor Sorption (DVS): Dynamic moisture adsorption and desorption was studied using IGA Sorp (Hidden Isochema Ltd.Warrington, UK). About 5 mg (3˜5 mg) of a prepared sample was placed in a sample basket and hung in the measuring chamber of an IGA Sorp. For an isotherm test, the chamber temperature is maintained by a water bath at constant 25.0±1.0° C. The sample was tested at a targeted RH range from 0% to 90% full cycle in step mode. The analysis is performed in 10% increment. Time duration at each RH was set as […] Solid State Characterizaton: Form I of Compound 1 hydrochloride was characterized by XRPD (FIG. 1), TGA (FIG. 2), DSC (FIG. 3), DVS (FIG. 4). […] The crystal form of the initial drug substance is assigned as Form I.

[3] = Heating to 80° C. by TGA, then XRPD; settings: heated to 80° C. by TGA
Procedure: Powder X-RayDiffraction (XRPD): The solid samples were examined using X-ray diffractometer (Bruker D8 advance). The system is equipped with LynxEye detector. The samples were scanned from 3 to 40° 2θ, at a step size 0.02° 2θ. The tube voltage and current were 40 KV and 40 mA respectively. The sample was transferred from sample container onto zero background XRD holder and gently ground. TGA Analysis: TGA analysis was carried out on a TA Instruments TGA Q500. Samples was placed in a tarred platinum or aluminum pan, automatically weighed and inserted into the TGA furnace. The samples were heated at a rate of 10° C./min to final temperature of 300° C. The purge gas is nitrogen for balance at 40 ml/min and for the sample at 60 ml/min, respectively. Scale-up of Form II: 60 mg or 40 mg of Compound 1 hydrochloride was dissolved in 3 mL of ethanol or 1-butanol, respectively. Both solutions were filtered, filtrates were collected and then the two filtrates were combined in (1:1) volume ratio. The resulting solution was allowed to evaporate at ambient condition to dryness to yield Form II.

[4] = Physical stability of crystal forms at ambient conditions; settings: converted into Form I or a mixture of Form I and its free base
Description: Methods: Three crystal forms of 2-hydroxy-6-((2-(1-isopropyl-1H-pyrazol-5-yl)pyridin-3-yl)methoxy)benzaldehyde hydrochloride with different XRPD patterns were identified in this study based on a matrix of crystallizations in various solvents, screened in 96-wells as described below. An initial drug substance was assigned as Form I. Form I was also obtained in numerous conditions during solvent crystallization in the 96-well screen and in slurry studies. Form II and Form III were also generated. Solids obtained were characterized by X-ray powder diffraction (XRPD), differential scanning calorimetry (DSC), thermogravimetry (TGA), polarizing microscope (PLM) and Fourier transform infrared spectrometer (FTIR).
as §1

Row | water picked up (DVS profile) [2] | XRPD after heating [3] | stability of crystal form at ambient conditions [4] | SMILES | outcome of interconversion (slurry) experiments / relative thermodynamic stability [1]
1 | < 1% |  |  | CC(C)n1nccc1-c1ncccc1COc1cccc(O)c1C=O.Cl [Form I, 2-hydroxy-6-((2-(1-isopropyl-1H-pyrazol-5-yl)pyridin-3-yl)methoxy)benzaldehyde hydrochloride] | the most thermodynamically stable form
2 |  | remained unchanged | unstable at ambient conditions | CC(C)n1nccc1-c1ncccc1COc1cccc(O)c1C=O.Cl [Form II, 2-hydroxy-6-((2-(1-isopropyl-1H-pyrazol-5-yl)pyridin-3-yl)methoxy)benzaldehyde hydrochloride] | transforms almost entirely to Form I crystals
3 |  |  | unstable at ambient conditions | CC(C)n1nccc1-c1ncccc1COc1cccc(O)c1C=O.Cl [Form III, 2-hydroxy-6-((2-(1-isopropyl-1H-pyrazol-5-yl)pyridin-3-yl)methoxy)benzaldehyde hydrochloride] | 
